In patent publication US20170030891A1, “BLOOD CONDITION ANALYSIS DEVICE, BLOOD CONDITION ANALYSIS SYSTEM, BLOOD CONDITION ANALYSIS METHOD, AND PROGRAM” (SONY CORPORATION, priority 2014, published 2017):

Tests used:
blood coagulation = test: complex permittivity at 10 MHz of blood samples having different heparin concentrations; conditions: relation to heparin concentration, FIG. 12
Method: The blood condition analysis method of this embodiment is not limited to the evaluation criteria and evaluation methods described above. For example, it is also possible that heparin is used as the drug, and the suppressing effect of heparin on blood coagulation is evaluated. FIG. 11 is a diagram showing time-dependent changes in the real part (∈′) of the complex permittivity of blood samples having different heparin concentrations at 10 MHz, and FIG. 12 is a diagram showing the relation between the clotting time determined from the values of ∈′ at 10 MHz shown in FIG. 11 and the heparin concentration. In addition, FIG. 13 is a diagram showing the coagulation curves of blood samples having different heparin concentrations, and FIG. 14 is a diagram showing the relation between the heparin concentration and the difference in clotting time.

[1] = test system: fibrinolysis system of the blood; test: complex permittivity at 10 MHz of blood samples with fibrinolysis system promotor (tPA) and inhibitor (aprotinin); conditions: aprotinin added to blood with tPA, 10 MHz, FIG. 10
Method: In addition, for example, in the case where the fibrinolysis system is evaluated, examples of coagulation factors to be evaluated include plasminogen and plasmin. In that case, as a drug to be added to the blood sample, an activator or inhibitor of plasminogen or plasmin is usable. FIG. 9 is a diagram showing time-dependent changes in the real part (∈′) of the complex permittivity at 10 MHz of blood samples having different fibrinolysis system promotor (tPA) and fibrinolysis system inhibitor (aprotinin) concentrations.
For the evaluation of the fibrinolysis-system blood, for example, a value obtained by dividing the amplitude after 30 minutes from the time B shown in FIGS. 2A-2B by the amplitude at the time B (LI30: the source of clot firmness after a predetermined period of time from the maximum firmness accompanying fibrinolysis) can be used as an evaluation parameter.

fibrinogen [2] = molecular target: T1, fibrinogen (Homo sapiens, UniProt P02675+P02679); test: coagulation amplitude and coagulation time of blood samples vs fibrinogen inhibitor (Pefabloc) concentration; conditions: relation to Pefabloc concentration, FIG. 15A and 15B
T1 construct: from tissue; host or cells: blood sample (donor not described)
T1 sequence (P02671 20-629 partner limits assumed): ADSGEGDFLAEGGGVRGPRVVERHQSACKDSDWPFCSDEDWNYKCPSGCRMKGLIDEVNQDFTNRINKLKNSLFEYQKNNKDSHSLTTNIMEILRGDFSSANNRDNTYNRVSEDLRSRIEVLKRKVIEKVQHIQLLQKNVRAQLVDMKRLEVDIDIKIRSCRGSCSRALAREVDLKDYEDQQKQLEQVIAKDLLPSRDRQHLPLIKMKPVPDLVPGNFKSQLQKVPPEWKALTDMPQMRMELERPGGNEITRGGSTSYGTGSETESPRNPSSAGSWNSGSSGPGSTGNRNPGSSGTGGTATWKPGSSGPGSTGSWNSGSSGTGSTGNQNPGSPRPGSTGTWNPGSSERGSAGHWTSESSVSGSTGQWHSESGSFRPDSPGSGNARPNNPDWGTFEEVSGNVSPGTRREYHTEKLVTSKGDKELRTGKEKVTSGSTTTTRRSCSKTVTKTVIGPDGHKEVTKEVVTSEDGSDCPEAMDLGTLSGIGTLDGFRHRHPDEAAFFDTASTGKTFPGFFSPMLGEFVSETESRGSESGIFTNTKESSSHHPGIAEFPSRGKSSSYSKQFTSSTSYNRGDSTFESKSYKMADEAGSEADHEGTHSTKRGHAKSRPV
T1 sequence (P02675 31-491): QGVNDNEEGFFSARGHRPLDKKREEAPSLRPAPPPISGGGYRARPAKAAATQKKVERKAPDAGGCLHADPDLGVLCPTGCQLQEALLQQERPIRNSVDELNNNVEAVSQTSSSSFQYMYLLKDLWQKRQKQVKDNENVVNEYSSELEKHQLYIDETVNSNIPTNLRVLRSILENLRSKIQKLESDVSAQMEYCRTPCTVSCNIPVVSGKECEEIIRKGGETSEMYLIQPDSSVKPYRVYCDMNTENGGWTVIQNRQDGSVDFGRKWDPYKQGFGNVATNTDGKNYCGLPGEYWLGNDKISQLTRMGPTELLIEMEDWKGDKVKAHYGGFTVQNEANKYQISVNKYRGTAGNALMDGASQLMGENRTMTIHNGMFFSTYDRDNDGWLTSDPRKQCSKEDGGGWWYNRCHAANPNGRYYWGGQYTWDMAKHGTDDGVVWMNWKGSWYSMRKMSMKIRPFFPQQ
T1 sequence (P02679 27-433 limits assumed): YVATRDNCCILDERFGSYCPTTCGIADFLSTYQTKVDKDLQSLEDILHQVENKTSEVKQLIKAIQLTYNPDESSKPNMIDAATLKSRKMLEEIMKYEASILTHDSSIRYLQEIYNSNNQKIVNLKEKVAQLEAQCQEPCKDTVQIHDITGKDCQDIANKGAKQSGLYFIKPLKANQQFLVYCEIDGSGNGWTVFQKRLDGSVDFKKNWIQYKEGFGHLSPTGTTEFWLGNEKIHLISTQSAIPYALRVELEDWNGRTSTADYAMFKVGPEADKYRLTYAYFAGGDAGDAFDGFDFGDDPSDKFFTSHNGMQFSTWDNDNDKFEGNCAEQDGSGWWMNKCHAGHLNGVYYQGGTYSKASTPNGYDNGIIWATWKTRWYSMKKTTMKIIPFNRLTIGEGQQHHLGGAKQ
Description: Further, by using a fibrinogen inhibitor, such as Pefabloc, as the drug, the influence of fibrinogen can also be evaluated. FIG. 15A is a diagram showing the relation between the fibrinogen inhibitor (Pefabloc) concentration and the coagulation amplitude, while FIG. 15B is a diagram showing the relation with the coagulation time. […] Thus, utilizing this characteristic, the influence of fibrinogen can be evaluated, or the amount of fibrinogen can be estimated.

fibrinogen [3] = molecular target: T1, fibrinogen; test: Example 1: complex permittivity in the process of coagulation of blood with CyD or Pefabloc at various concentrations; conditions: from PFG concentration dependence at CyD concentration 0, FIG. 25; blood from a healthy individual
Method: (§1) Hereinafter, the effects of the present disclosure will be described in detail. In this example, CyD or Pefabloc was added at various concentrations to a blood sample collected from a healthy individual, and changes in the complex permittivity in the process of coagulation were measured.
(§2) As shown in the following Mathematical Formula 1, the clot firmness CF depends on the effective concentration of platelets PLT and the effective concentration of fibrinogen FIB. Incidentally, a, b, and c in the following Mathematical Formula 1 are parameters determined by measurement.
(§3) Here, by applying the analysis method shown in FIG. 8 to the data of a sample having a Pefabloc concentration of 0% shown in FIG. 24, it can be estimated that the CyD concentration at which the contribution of platelets disappears is 3.4 μg/ml (the addition of 8 μl of CyD to 180 μl of blood). As a result, the effective concentration of platelets (142000/μl) can be determined. In a similar manner, the amount of fibrinogen can be determined using the data of a sample having a CyD concentration of 0% shown in FIG. 25.
Then, the effective concentration of platelets PLT can be estimated from data of CyD concentration dependence. In addition, the effective concentration of fibrinogen FIB can be estimated from data of PFG concentration dependence. […]

platelet factors = test: time-dependent changes in real part of complex permittivity of blood samples having different CyD concentrations at 10 MHz; type: cell-based
Description: The electrical characteristic measurement device 10 includes a measurement unit that applies a voltage between a pair of electrodes provided in a sample container filled with a blood sample to be evaluated, and measures the electrical characteristics of the blood sample over time at a specific frequency or frequency band. Examples of electrical characteristics measured by the electrical characteristic measurement device 10 include the impedance, conductance, admittance, capacitance, permittivity, conductivity, and phase angle, as well as amounts obtained by converting them into the amounts of electricity. Incidentally, the blood condition analysis system 1 of this embodiment can perform evaluation from at least one kind of these electrical characteristics, but may also utilize two or more kinds of electrical characteristics.
In the measurement step S1, the electrical characteristics of two or more blood samples adjusted from one blood specimen and having different drug types or concentrations are measured over time at a specific frequency or frequency band. At this time, the conditions for the electrical characteristic measurement are not particularly limited, and may be suitably set according to the kind of electrical characteristics and the like within a range where the blood to be evaluated is not deteriorated.
In the analysis step S2, utilizing data of time-dependent changes in the electrical characteristics measured by the electrical characteristic measurement device 10, the influence of the drug or a factor in the blood on the coagulation system or fibrinolysis system of the blood is evaluated by the blood condition analysis device 11. For example, from data of time-dependent changes in the electrical characteristic of each blood sample, parameters conventionally used for the evaluation of the coagulation system or fibrinolysis system of blood are calculated. […]
In addition, for example, in the case where the coagulation system is evaluated, examples of coagulation factors to be evaluated include platelet factors and fibrinogen. […]

platelets = test: Example 1: complex permittivity in the process of coagulation of blood with CyD or Pefabloc at various concentrations; type: cell-based; conditions: sample with Pefabloc concentration 0%, FIG. 24; addition of 8 μl of CyD to 180 μl of blood; blood from a healthy individual
Method: as §1, §2, §3

Compound: heparin
- clotting time determined from ∈′ at 10 MHz (blood coagulation): the clotting time increases with an increase in the heparin concentration

Compound: aprotinin
- LI30 (amplitude after 30 minutes from time B divided by amplitude at time B) [1]: turns back to the value of the control blood sample

Compound: H-Gly-Pro-Arg-Pro-OH×AcOH (H-GPRP-OH; also: acetate salt) [Pefabloc, fibrinogen function suppressor]
- coagulation amplitude and clotting time (fibrinogen [2]): the coagulation amplitude and the clotting time change with an increase in the fibrinogen inhibitor (Pefabloc) concentration
- effective concentration of fibrinogen FIB (equivalent PFG) (fibrinogen [3]): 1000 µg/mL

Compound: C=C1[C@@H](C)[C@H]2[C@H](Cc3ccccc3)NC(=O)[C@]23[C@H](OC(C)=O)/C=C/[C@@](C)(O)C(=O)[C@@H](C)C/C=C/[C@H]3[C@@H]1O [CyD, cytochalasin D]
- amount of CyD for inhibiting the platelet factors (platelet factors; blood sample of FIG. 8, number of platelets 136500 per 1 μl): 25 ng per platelet
- minimum drug dose to completely suppress the action of platelet factors (platelet factors; from coagulation rate vs CyD concentration (FIG. 8), agrees with coagulation rate of blood sample containing excess CyD): 3.3 µg/mL
- coagulation amplitude and coagulation rate determined from the real part of the complex permittivity (platelet factors; relation to CyD concentration, FIG. 7 and FIG. 8): correlated with the CyD concentration
- CyD concentration at which the contribution of platelets disappears (platelets): 3.4 µg/mL
